Active and inactive are the calls of the source.
Assays:
[1] = system: Enterococcus faecalis; test: Antibacterial activity against vancomycin-resistant Enterococcus faecalis 26A36; type: functional
[2] = system: Enterococcus faecium; test: Antibacterial activity against ciprofloxacin, vancomycin-resistant Enterococcus faecium 26A23; type: functional
[3] = target: T1, Quinolone resistance protein NorA (Staphylococcus aureus) (UniProt P0A0J7); test: Inhibition of NorA efflux pump in Staphylococcus aureus SA-1199B assessed as inhibition of EtBr efflux at 50 uM
T1 sequence (whole entry): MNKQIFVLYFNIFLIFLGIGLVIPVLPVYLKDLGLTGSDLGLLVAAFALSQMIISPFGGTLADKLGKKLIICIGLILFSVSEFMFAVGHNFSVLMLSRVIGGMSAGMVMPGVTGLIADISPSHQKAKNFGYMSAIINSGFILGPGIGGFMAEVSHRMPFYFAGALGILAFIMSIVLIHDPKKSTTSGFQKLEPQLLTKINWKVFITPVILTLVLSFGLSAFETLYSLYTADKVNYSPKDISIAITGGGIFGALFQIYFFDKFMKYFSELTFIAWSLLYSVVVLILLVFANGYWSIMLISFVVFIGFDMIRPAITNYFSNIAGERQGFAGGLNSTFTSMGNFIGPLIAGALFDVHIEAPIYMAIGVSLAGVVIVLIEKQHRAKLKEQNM

[4] = Inhibition of DNA gyrase (unknown origin) by DNA super coiling assay
[5] = system: Escherichia coli; test: Antimicrobial activity against Escherichia coli ATCC 25922; type: functional
[6] = system: Pseudomonas aeruginosa; test: Antimicrobial activity against Pseudomonas aeruginosa ATCC 27853; type: functional
[7] = system: Klebsiella pneumoniae; test: Antimicrobial activity against Klebsiella pneumoniae ATCC 13833; type: functional
[8] = system: Proteus mirabilis; test: Antimicrobial activity against Proteus mirabilis CCUG 26767; type: functional
[9] = system: Staphylococcus aureus; test: Antimicrobial activity against Staphylococcus aureus ATCC 25923; type: functional
[10] = system: Staphylococcus aureus; test: Antimicrobial activity against methicillin-sensitive Staphylococcus aureus 21A; type: functional
[11] = system: Staphylococcus aureus; test: Antimicrobial activity against ciprofloxacin, methicillin-resistant Staphylococcus aureus 25A; type: functional
[12] = system: Staphylococcus epidermidis; test: Antibacterial activity against Staphylococcus epidermidis ATCC 14990; type: functional
[13] = system: Enterococcus faecium; test: Antibacterial activity against Enterococcus faecium ATCC 19433; type: functional
[14] = system: Staphylococcus aureus; test: Antimicrobial activity against norA-deficient Staphylococcus aureus SA-K1902; type: functional
[15] = system: Staphylococcus aureus; test: Antimicrobial activity against norA-overexpressing Staphylococcus aureus SA-K2378; type: functional
[16] = system: Staphylococcus aureus; test: Antimicrobial activity against wild type Staphylococcus aureus ATCC 25923; type: functional
[17] = target: T1, Quinolone resistance protein NorA (Staphylococcus aureus); test: Inhibition of NorA efflux pump in norA-overexpressing Staphylococcus aureus SA-K2378 assessed as reduction in ciprofloxacin MIC at 0.78 to 100 ug/ml by isobologram based checkerboard assay
[18] = system: Staphylococcus aureus; test: Potentiation of ciprofloxacin-induced antibacterial effect against wild type Staphylococcus aureus ATCC 25923 at 0.78 to 100 ug/ml by isobologram based checkerboard assay; type: functional, organism-based
[19] = system: Staphylococcus aureus; test: Potentiation of ciprofloxacin-induced antibacterial effect against norA-deficient Staphylococcus aureus SA-K1902 at 0.78 to 100 ug/ml by isobologram based checkerboard assay; type: functional, organism-based
[20] = target: T1, Quinolone resistance protein NorA (Staphylococcus aureus); test: Inhibition of NorA efflux pump in norA-overexpressing Staphylococcus aureus SA-K2378 assessed as reduction in ciprofloxacin MIC at 12.5 ug/ml by isobologram based checkerboard assay
[21] = target: T1, Quinolone resistance protein NorA (Staphylococcus aureus); test: Inhibition of NorA efflux pump in norA-overexpressing Staphylococcus aureus SA-K2378 assessed as reduction in ciprofloxacin MIC at 50 ug/ml by isobologram based checkerboard assay

CNC(=O)C1=C(O)c2cc(N)c(N3CCN(C)CC3)cc2N(C2CC2)S1(=O)=O
inactive: inhibition [4]
> 128 µg/mL: MIC [1] | MIC [2] | MIC [5] | MIC [6] | MIC [7] | MIC [8] | MIC [9] | MIC [10] | MIC [11] | MIC [12] | MIC [13]
2%: inhibition [3]

Fc1ccc([C@@H]2CCNC[C@H]2COc2ccc3c(c2)OCO3)cc1 [PAROXETINE]
active: inhibition [17]
> 100 µg/mL: MIC [14] | MIC [15] | MIC [16]
inactive: Activity [18] | Activity [19]

CC1C(=O)c2cc(N)c(N3CCN(C)CC3)cc2N(C2CC2)S1(=O)=O (stereo unspecified)
4: fold change (FC) [20]
active: inhibition [17] Dose-dependent effect
27%: inhibition [3]
> 100 µg/mL: MIC [14] | MIC [15] | MIC [16]
inactive: Activity [18] | Activity [19] | inhibition [4]
> 128 µg/mL: MIC [1] | MIC [2] | MIC [5] | MIC [6] | MIC [7] | MIC [8] | MIC [9] | MIC [10] | MIC [11] | MIC [12] | MIC [13]

CCOC(=O)C1(C)C(=O)c2cc(N)c(N3CCN(C)CC3)cc2N(C2CC2)S1(=O)=O (stereo unspecified)
4: fold change (FC) [21]
active: inhibition [17] Dose-dependent effect
25%: inhibition [3]
> 100 µg/mL: MIC [14] | MIC [15] | MIC [16]
inactive: Activity [18] | Activity [19] | inhibition [4]
> 128 µg/mL: MIC [1] | MIC [2] | MIC [5] | MIC [6] | MIC [7] | MIC [8] | MIC [9] | MIC [10] | MIC [11] | MIC [12] | MIC [13]

CCOC(=O)C1=C(O)c2cc(N)c(N3CCN(C)CC3)cc2N(C2CC2)S1(=O)=O
inactive: inhibition [4]
0%: inhibition [3]
> 128 µg/mL: MIC [1] | MIC [2] | MIC [5] | MIC [6] | MIC [7] | MIC [8] | MIC [9] | MIC [10] | MIC [11] | MIC [12] | MIC [13]

CN1CCN(c2cc3c(cc2N)C(=O)CS(=O)(=O)N3C2CC2)CC1
7%: inhibition [3]
inactive: inhibition [4]
> 128 µg/mL: MIC [1] | MIC [2] | MIC [5] | MIC [6] | MIC [7] | MIC [8] | MIC [9] | MIC [10] | MIC [11] | MIC [12] | MIC [13]

COC(=O)[C@H]1[C@H]2C[C@@H]3c4[nH]c5cc(OC)ccc5c4CCN3C[C@H]2C[C@@H](OC(=O)c2cc(OC)c(OC)c(OC)c2)[C@@H]1OC [RESERPINE]
inactive: Activity [18] | Activity [19]
> 100 µg/mL: MIC [14] | MIC [15] | MIC [16]
active: inhibition [17]

Reference: ChEMBL document CHEMBL3217728, “Searching for innovative quinolone-like scaffolds: synthesis and biological evaluation of 2,1-benzothiazine 2,2-dioxide derivatives” (2012)
